Experimental data taken from patent US11873354B2, “Photobase generator, compound, photoreactive composition, and reaction product” (Tokyo University of Science Foundation, priority 2019, dated 2024).
Entries after “also recorded” stand apart in the source; their conditions may differ.

Columns and labels:
Format in all cases: physicochemical
[1] = Color reaction experiment of phenol red (basicity, UV-Vis); details: for peak showing basicity near 570 nm: methanol solution with phenol red, UV-Vis
Description: Next, it was confirmed that 2-methyl-2-imidazoline (2MI), which is generated by light irradiation to the compound (1)-2, is a stronger base than cyclohexylamine (CyA), which is an aliphatic amine, by a color reaction experiment of phenol red. First, 2MI, CyA and diazabicycloundecene (DBU) were prepared as bases, and 1.5 mL of methanol solution, in which the concentration was prepared at 2.0×10^−5 mol/L, was added to 1.5 mL of a methanol solution in which each base was dissolved. The basicity of each base was evaluated by measuring the UV-Vis spectrum of each of the solution.

[2] = Preservation stability of liquid mixture with base-reactive compound (9)-301 (Test Examples 3, 4); details: with (9)-301 in methanol, dark place, 25° C., 6 days
Description: A base-reactive compound (9)-301 (0.10 g) as shown below, the compound (1)-1 (0.012 g, 8 molar % with respect to the methoxy group in the base-reactive compound), and methanol (0.51 g) were added in a glass bottle to prepare a liquid mixture.
The liquid mixture was stored in a dark place at 25° C. for 6 days. After storage for 6 days, the glass bottle was shaken or inverted to confirm that the liquid mixture in the glass bottle was liquid.
The base-reactive compound (9)-301 (0.10 g), the compound (2)-1 (0.013 g, 8 molar % with respect to the methoxy group in the base-reactive compound), and methanol (0.50 g) were added in a glass bottle to prepare a liquid mixture.
The liquid mixture was stored in a dark place at 25° C. for 4 days. After storage for 4 days, the glass bottle was shaken or inverted to confirm that the liquid mixture in the glass bottle was gelled.

[3] = Absorbance of compound in methanol under light irradiation (Test Examples 1, 2, 7, 8); details: methanol solution; for molar absorption coefficient ε313: 313 nm; for molar absorption coefficient ε365: 365 nm
Description: (§1) The above-obtained compound (1)-1 was dissolved in methanol so as to have a concentration of 2.5×10^−5 mol/L. Then, using an LED lamp, the illuminance was set to 50 mW/cm^2, the exposure dose was set to 0, 50, 150 or 300 mJ/cm^2, and the obtained methanol solution was irradiated with light having a wavelength of 365 nm. Then, the absorbance of the compound (1)-1 was measured.
as §1, with “a mercury xenon” for “an LED”, “100” for “150”, “280” for “300”, “313” for “365”
as §1, with “(1)-3” for “(1)-1”, “1.5×10^−5” for “2.5×10^−5”, “100, 200” for “150”, “350” for “300”, “measured. In Test Example 7, the molar absorption coefficient was ε365=1.2×10^4 L/(mol cm).” for “measured.”
The above-obtained compound (1)-3 was dissolved in methanol so as to have a concentration of 1.5×10^−5 mol/L. Then, using a mercury xenon lamp, the illuminance was set to 10 mW/cm^2, the exposure dose was set to 0, 50, 100, 200 or 350 mJ/cm^2, and the obtained methanol solution was irradiated with light having a wavelength of 313 nm. Then, the absorbance of the compound (1)-3 was measured. In Test Example 8, the molar absorption coefficient was ε313=2.8×10^4 L/(mol cm).

[4] = pH test paper after irradiation of aqueous solution; details: 365 nm
[5] = Solubility test; details: chloroform, dimethyl sulfoxide and the like; compared with compound (1)-2

| molar absorption coefficient ε313 [3] [L/mol/cm] | molar absorption coefficient ε365 [3] [L/mol/cm] | Compound | peak showing basicity near 570 nm [1] | also measured |
| --- | --- | --- | --- | --- |
|  |  | NC1CCCCC1 [CyA, cyclohexylamine] | no peak showing basicity appeared near 570 nm |  |
| 16000 | 3100 | CN(C)C(=NC(=O)/C=C/c1ccccc1O)N(C)C [Compound (1)-1] |  | state of liquid mixture after storage [2]: liquid |
|  |  | CC1=NCCN1 [Compound 2MI, 2-methyl-2-imidazoline] | a peak showing basicity appeared near 570 nm | relative basicity ([1]; from peak intensity near 570 nm): weaker than that of DBU; also recorded: stronger than that of CyA |
|  |  | CC1=NCCN1C(=O)/C=C/c1ccccc1O [Compound (1)-2] |  | pH test paper after light irradiation [4]: discolored to the basic side |
| 28000 | 12000 | CC1=NCCN1C(=O)/C=C/c1cc(C(C)(C)C)cc(C(C)(C)C)c1O [Compound (1)-3] |  | solubility [5]: improved in solubility |
|  |  | C1CCC2=NCCCN2CC1 [DBU, diazabicycloundecene] | a peak showing basicity appeared near 570 nm |  |
